Values of other authors as cited in patent US20260185050A1, “BIOLOGIC INTERFACIAL TISSUE-ENGINEERED SYSTEMS USEFUL AS ARTHROPOD BITEMODEL” (UNIVERSITY OF CENTRAL FLORIDA RESEARCH FOUNDATION, INC., priority 2022, published 2026).

Columns and labels:
[1] = C5 epimers of alginate
[2] = test system: Aedes albopictus; conditions: selective dose response work, males and females
[3] = test system: Culex pipiens; conditions: select experiments
[4] = test system: Aedes aegypti; conditions: selective dose response work, males and females

| pKa [1] | SMILES | kill performance versus erythritol [2] | kill performance versus erythritol [3] | kill performance versus erythritol [4] |
| --- | --- | --- | --- | --- |
| 3.38 | O=C(O)[C@H]1O[C@@H](O)[C@@H](O)[C@@H](O)[C@@H]1O [M, β-D-mannuronate] | – | – | – |
| 3.65 | O=C(O)[C@@H]1O[C@@H](O)[C@@H](O)[C@@H](O)[C@@H]1O [G, α-L-guluronate] | – | – | – |
| – | CC(O)CO (centres unmarked) [propylene glycol] | outperform erythritol | outperform erythritol | outperform erythritol |
